According to US8735442B2, “Composition for alleviating ultraviolet radiation-induced damage” (priority 2009, dated 2014):
Where two headings read alike, the source gives them in different places.

Assays:
[1] = test system: human neonatal epidermal keratinocyte (Cryo NHEK-Neo); assay: UV-B irradiation-induced cell damage in keratinocytes, D-amino acids and cysteine, Alamar Blue (Example 4); assay type: cell-based; details: UV-B 25 mJ/cm^2; 100 μM before and after irradiation; without the amino acid about 500 to 600
Experimental: The cell employed was a commercially available human neonatal epidermal keratinocyte (Cryo NHEK-Neo, Sanko-Junyaku Co., Ltd.). […] Thereafter, it was cultured for 2 days in 2 mL of the ordinary medium 3 containing 100 μM D-alanine, D-serine, D-hydroxyproline, D-aspartic acid, D-cysteine or L-cysteine. As a control, the ordinary medium 3 containing PBS instead of the D-amino acid was added to the ordinary medium 3.
Thereafter, the fluorescent intensity was measured by the method described in Example 1.

[2] = test system: human dermal fibroblast derived from a patient having xeroderma pigmentosum (Group A) (XP30S (SVT)); assay: UV-A irradiation-induced cell damage in XP cells, pretreatment, Alamar Blue (Example 5); assay type: cell-based; details: UV-A 1 J/cm^2; pretreatment 0.1 μM; non-UV irradiating condition about 690, negative control about 630
Experimental: A human dermal fibroblast derived from a patient having xeroderma pigmentosum (Group […]), hereinafter referred to as “XP cell”) which was obtained from Japan Health Science Foundation was employed and cultured by the same method described in Example 3. […] The UV dose was measured using UV RADIOMETER […] Corporation).

[3] = test system: human neonatal dermal fibroblast (Cryo NHDF-Neo); assay: UV-A irradiation-induced cell damage in fibroblasts, pretreatment, Alamar Blue (Example 3); details: UV-A 22.5 J/cm^2; for fluorescent intensity: control about 1,100
[4] = test system: human neonatal epidermal keratinocyte (Cryo NHEK-Neo); assay: UV-B irradiation-induced cell damage in keratinocytes, Alamar Blue (Example 1); assay type: cell-based; details: UV-B 75 mJ/cm^2; 0.1 to 100 μM, pretreatment or posttreatment; non-irradiated about 22,000, irradiated 5,000 to 7,000
Experimental: The cell employed was a commercially available human neonatal epidermal keratinocyte (Cryo NHEK-Neo, Sanko-Junyaku Co., Ltd.).
Thereafter, the culture medium was supplemented with Alamar Blue (trade mark, Biosource International Inc.) at a final concentration of 10%, and its supernatant was examined for the fluorescent intensity 3 hours later with an excitation wavelength of 544 nm and a fluorescent wavelength of 590 nm as described by Ahmed S. A. et al. (J. Immunol. Method. 170, 211-224 (1994)) and in accordance with the manufacture's instruction.

[5] = test system: human neonatal dermal fibroblast (Cryo NHDF-Neo); details: for fluorescent intensity / alleviation of the cell damage: 0.1 μM; for fluorescent intensity: Mean ± SD, N = 4-6; for alleviation of the cell damage: UV-A 12.5 J/cm^2 and 15 J/cm^2
Experimental: The cell employed was a commercially available human neonatal dermal fibroblast (Cryo NHDF-Neo, Sanko-Junyaku Co., Ltd.). This cell was inoculated at 2×10^5 cells/mL to a commercially available culture dish of 35 mm in diameter (BD FALCON 353001, Beckton Dickinson Japan), where it was cultured in a commercially available cell culture medium (D-MEM (1 g/L glucose, Wako Pure Chemical Industries, Ltd.) supplemented with 10% fetal bovine serum (hereinafter referred to as “ordinary medium 2”). This cell was cultured for about 24 hours in a 5% CO2 and saturated water vapor atmosphere at 37° C.
Thereafter, the culture medium for culturing the cell described above was switched to 1 mL of a BSO medium containing a glutathione biosynthesis inhibitor BSO (L-buthionine-(S,R)-sulfoximine, Wako Pure Chemical Industries, Ltd.) at 1×10^−3%, where the culture was conducted for about 24 hours in a 5% CO2 and saturated water vapor atmosphere at 37° C. The BSO medium described above was prepared by a 200-fold dilution of a stock solution containing 0.2% BSO in ethyl alcohol with the ordinary medium 2 described above.
[…] was dissolved in a distilled water at 2×10^−3%, and the resultant solution was subjected to a 200-fold dilution (final concentration: 1×10^−5%) with a phosphate buffer solution PBS containing calcium ion and magnesium ion (PBS+) to obtain a medium (hereinafter referred to as “UV irradiation medium”), which was warmed preliminarily before use.
Before UV-A irradiation, the culture medium was replaced with 1 mL of the UV irradiation medium described above. […] The UV dose was measured using UV RADIOMETER UVR-3036/S (Topcon Corporation).
After UV irradiation, the cell was returned to the ordinary medium 2 described above where it was cultured in a 5% CO2 and saturated water vapor atmosphere at 37° C. for 21 hours. For examining the effect of adding proline after UV irradiation (hereinafter referred to as “posttreatment”), this 21-hour cultured medium was supplemented with 0.01 to 1000 μM L- or D-proline.
Thereafter, the fluorescent intensity was measured by a method described in Example 1.

[6] = UV irradiation amount 0 J/cm^2, control 12380 ± 21
[7] = UV-A 12.5 J/cm^2, control 2503 ± 629
[8] = UV-A 15 J/cm^2, control 1018 ± 89

C[C@@H](N)C(=O)O [D-alanine]
fluorescent intensity of Alamar Blue [1]: about 570

N[C@H](CC(=O)O)C(=O)O [D-aspartic acid]
fluorescent intensity of Alamar Blue [1]: about 600

N[C@H](CS)C(=O)O [D-cysteine]
fluorescent intensity of Alamar Blue [1]: about 700 | fluorescent intensity [2]: about 638

N[C@H](CCC(=O)O)C(=O)O [D-glutamic acid]
fluorescent intensity ([3]; pretreatment 1 μM): about 1,700 | cell damage alleviating effect (fluorescent intensity of Alamar Blue) [4]: the cell damage was alleviated | fluorescent intensity [2]: about 675

O=C(O)[C@H]1C[C@H](O)CN1 [D-hydroxyproline]
fluorescent intensity of Alamar Blue [1]: about 550

O=C(O)[C@H]1CCCN1 [D-proline]
fluorescent intensity ([3]; pretreatment 0.1 μM): about 1,750 | fluorescent intensity [5, 6]: 12270 ± 68 ^ | fluorescent intensity [5, 7]: 4615 ± 1218 *^1 | alleviation of the cell damage [5]: the cell damage was alleviated | fluorescent intensity [5, 8]: 2365 ± 648 *^2 | cell damage alleviating effect (fluorescent intensity of Alamar Blue) ([5]; UV-A 15 J/cm^2 and 22.5 J/cm^2, posttreatment, non-irradiated about 12,000, irradiated about 5,000 and about 3,000): the cell damage was alleviated | fluorescent intensity [2]: about 664

N[C@H](CO)C(=O)O [D-serine]
fluorescent intensity of Alamar Blue [1]: about 490

N[C@@H](CS)C(=O)O [L-cysteine]
fluorescent intensity of Alamar Blue [1]: about 700 | fluorescent intensity [2]: about 688

N[C@@H](CCC(=O)O)C(=O)O [L-glutamic acid]
cell damage alleviating effect ([3]; pretreatment 1 μM): no cell damage alleviating effect was observed | fluorescent intensity ([3]; pretreatment 1 μM): about 1,100 | cell damage alleviating effect (fluorescent intensity of Alamar Blue) [4]: No cell damage alleviating effect was observed | fluorescent intensity [2]: about 658

O=C(O)[C@@H]1CCCN1 [L-proline, reference compound]
fluorescent intensity [5, 6]: 12211 ± 77 | fluorescent intensity [5, 7]: 2877 ± 834 | alleviation of the cell damage [5]: Almost no alleviation of the cell damage | fluorescent intensity [5, 8]: 1552 ± 320 | alleviating effect on ultraviolet irradiation-induced damage ([5]; summary statement referring to the Examples): no alleviating effect on ultraviolet irradiation-induced damage | fluorescent intensity [2]: about 583
